Biological target: α5β1 integrin (Homo sapiens, UniProt P05556+P08648)
Assay: In vitro binding assay (a): inhibition of binding of α5β1 integrin to fibronectin fragment Fn9-10 (Origen electrochemiluminescence)
Conditions: recombinant human α5β1 vs Fn9-10 ligand; geometric mean where tested more than once
Text: (a) In Vitro Binding Assay
The assay determined the ability of compounds to inhibit binding of α5β1 integrin to a cognate ligand, a fragment of human fibronectin. The assay used Origen technology (IGEN International) to measure the compound activity. Briefly, α5β1 integrin was coated onto epoxy-paramagnetic beads (Dynal Biotech UK, Bromborough, Wirral, CH62 3QL, UK, Catalogue No 140.11) and biotinylated-fibronectin ligand was coupled to strepatividin labeled Tag-NHS-Ester (BioVeris Corporation, Witney, Oxfordshire, OX28 4GE, UK, Catalogue No 110034). The ruthenium-labeled tag emits an electrochemiluminescence signal upon stimulation which is detected by the Origen reader. Thus, interaction of integrin and ligand causes association of bead and tag, and the resulting electrochemiluminescence signal reflects the level of integrin interaction with fibronectin.
20 μg of recombinant human α5β1 was coated onto 4×10(7) epoxy-paramagnetic beads according to manufacturers instructions at 4° C. for 24 hours. Integrin coating and corresponding activity was subsequently measured for each batch but typically, 25 ng of coated protein was used per assay well.
A DNA fragment encoding the domains 9-10 (amino-acids 1325-1509) of human fibronectin (Swiss-Prot Accession No. P02751) was isolated from cDNA libraries using standard molecular biology and PCR cloning techniques. The cDNA fragment was sub-cloned into a pT73.3 expression vector containing a GST-epitope tag (developed at AstraZeneca; Bagnall et al., Protein Expression and Purification, 2003, 27: 1-11). Following expression in E. coli, the expressed protein, termed Fn9-10, was purified using the GST-tag using standard purification techniques. The recombinant Fn9-10 was subsequently biotinylated using a EZ-link Sulfo-NHS-LC-Biotinylation kit (Perbio Science UK Ltd., Cramlington, Northumberland, NE23 1WA, UK, Catalogue No. 21335) and made to give a final concentration of approximately 1 mg/ml. Tag-NHS-Ester was labeled with streptavidin by incubation at room temperature following manufacturers instructions and buffer-exchanged into PBS to give a concentration of 0.5 mg/ ml. Immediately prior to the assay, biotinylated-Fn9-10 and Streptavidin-labeled Tag were diluted in Assay Buffer to give a final concentrations of 0.6 ug/ml and 1.5 ug/ml respectively. The Fn9-10 and Tag solutions were then mixed together in equal volumes and incubated on ice for at least 30 minutes prior to the assay.
Test compounds were prepared as 10 mM stock solutions in DMSO (Sigma-Aldrich Company Ltd, Gillingham, Dorset SP8 4XT Catalogue No. 154938) and serially diluted with 4% DMSO to give a range of test concentrations at ×4 required final concentration. Aliquots (20 μl) of each compound dilution were placed into each well of a 384-well round bottomed polypropylene plate (Matrix Technologies, Wilmslow, Cheshire, SK9 3LP, Catalogue No. 4340 384). Each plate also contained control wells: maximum signal was created using wells containing 20 μl of 4% DMSO, and minimum signal corresponding to no binding was created using wells containing 20 μl of 80 mM EDTA (Sigma Catalogue No. E7889).
For the assay, 25 ng(20 ul) of a5b1-bead suspension and 40 μl of the Fn9-10/Tag pre-incubated solution were added to each well containing 20 μl of compound or control solution. Assay plates were then incubated at room temperature for a minimum of 6 hours before being analysed on an Origen plate reader. The minimum value was subtracted from all values, and the signal was plotted against compound concentration to generate IC50 data.
The data in the above table was generated in an assay substantially as described above in relation to Binding Assay (a). Some of the compounds shown in the table were tested more than once in the assay. For those compounds the IC50 value shown is the geometric mean of the measured IC50 values. […]

Sequence of α5β1 integrin (P08648 42-894 limits assumed): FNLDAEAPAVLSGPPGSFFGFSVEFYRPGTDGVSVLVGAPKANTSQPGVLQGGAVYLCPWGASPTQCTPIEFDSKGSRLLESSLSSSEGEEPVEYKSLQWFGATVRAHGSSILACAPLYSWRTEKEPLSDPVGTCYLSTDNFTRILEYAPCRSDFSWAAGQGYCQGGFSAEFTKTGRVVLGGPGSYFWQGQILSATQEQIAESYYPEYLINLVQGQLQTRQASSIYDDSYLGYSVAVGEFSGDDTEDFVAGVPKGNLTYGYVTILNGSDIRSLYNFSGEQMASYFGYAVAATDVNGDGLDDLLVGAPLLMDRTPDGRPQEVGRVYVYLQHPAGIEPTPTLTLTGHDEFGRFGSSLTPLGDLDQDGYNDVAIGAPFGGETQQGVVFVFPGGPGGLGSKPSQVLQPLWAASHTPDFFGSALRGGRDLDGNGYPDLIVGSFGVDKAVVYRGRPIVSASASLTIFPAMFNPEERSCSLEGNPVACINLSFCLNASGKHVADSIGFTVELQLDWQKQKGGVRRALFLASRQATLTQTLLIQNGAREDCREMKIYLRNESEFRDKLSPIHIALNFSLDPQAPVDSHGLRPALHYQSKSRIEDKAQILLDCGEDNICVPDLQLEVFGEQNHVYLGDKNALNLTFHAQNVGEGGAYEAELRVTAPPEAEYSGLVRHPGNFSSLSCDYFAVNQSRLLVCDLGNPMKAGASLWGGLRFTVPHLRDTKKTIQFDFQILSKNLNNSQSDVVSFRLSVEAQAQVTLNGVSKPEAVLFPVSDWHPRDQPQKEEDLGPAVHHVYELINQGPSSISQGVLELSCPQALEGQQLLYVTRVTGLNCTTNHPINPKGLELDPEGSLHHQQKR
Sequence of α5β1 integrin (P08648 895-1049 partner limits assumed): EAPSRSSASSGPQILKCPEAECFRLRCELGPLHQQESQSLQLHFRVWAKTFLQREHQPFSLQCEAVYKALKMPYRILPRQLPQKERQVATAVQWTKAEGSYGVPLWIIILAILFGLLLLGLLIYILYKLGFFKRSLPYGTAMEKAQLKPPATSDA
Sequence of α5β1 integrin (P05556 21-798): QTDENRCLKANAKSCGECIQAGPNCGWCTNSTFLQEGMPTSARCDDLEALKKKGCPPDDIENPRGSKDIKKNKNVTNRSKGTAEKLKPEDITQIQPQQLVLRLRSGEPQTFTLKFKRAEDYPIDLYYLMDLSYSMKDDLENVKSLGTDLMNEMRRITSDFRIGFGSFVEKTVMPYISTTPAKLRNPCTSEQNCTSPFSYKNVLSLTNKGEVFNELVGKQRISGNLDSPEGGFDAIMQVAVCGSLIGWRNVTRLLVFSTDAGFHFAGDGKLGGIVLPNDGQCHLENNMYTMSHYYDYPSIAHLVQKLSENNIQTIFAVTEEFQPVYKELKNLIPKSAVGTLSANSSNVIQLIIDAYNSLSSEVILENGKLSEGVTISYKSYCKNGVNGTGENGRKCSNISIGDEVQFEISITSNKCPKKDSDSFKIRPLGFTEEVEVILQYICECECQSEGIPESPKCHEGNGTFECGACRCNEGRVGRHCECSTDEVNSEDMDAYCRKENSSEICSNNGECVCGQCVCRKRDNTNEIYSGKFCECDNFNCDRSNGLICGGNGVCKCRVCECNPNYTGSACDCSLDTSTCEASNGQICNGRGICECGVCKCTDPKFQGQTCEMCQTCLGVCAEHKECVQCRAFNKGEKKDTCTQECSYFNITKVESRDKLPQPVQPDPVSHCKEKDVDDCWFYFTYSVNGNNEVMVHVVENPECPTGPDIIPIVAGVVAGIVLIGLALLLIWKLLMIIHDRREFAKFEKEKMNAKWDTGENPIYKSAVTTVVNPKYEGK

Row | Structure (SMILES) | IC50
1 | CNc1cccc(CCOc2ccc(C[C@H](NC(=O)C3(C)CCCCC3)C(=O)O)cc2)n1 [Example 1.1, O-{2-[6-(methylamino)pyridin-2-yl]ethyl}-N-[(1-methylcyclohexyl)carbonyl]-L-tyrosine] | 0.005 µM
2 | CNc1cccc(CCOc2ccc(C[C@H](NC(=O)[C@H](C)OC)C(=O)O)cc2)n1 [Example 1.3, N-[(2S)-2-methoxypropanoyl]-O-{2-[6-(methylamino)pyridin-2-yl]ethyl}-L-tyrosine] | 0.022 µM
3 | CNc1cccc(CCOc2ccc(C[C@H](NC(=O)[C@H](CC(C)C)NC(=O)c3ccccc3)C(=O)O)cc2)n1 [Example 1.4, N-benzoylleucyl-O-{2-[6-(methylamino)pyridin-2-yl]ethyl}-L-tyrosine] | 0.066 µM
4 | CNc1cccc(CCOc2ccc(C[C@H](NC(=O)C(C)(C)C(=O)N3CCCC3)C(=O)O)cc2)n1 [Example 1.5, N-(2,2-dimethyl-3-oxo-3-pyrrolidin-1-ylpropanoyl)-O-{2-[6-(methylamino)pyridin-2-yl]ethyl}-L-tyrosine] | 0.002 µM
5 | CNc1cccc(CCOc2ccc(C[C@H](NC(=O)C3(OC)CCOCC3)C(=O)O)cc2)n1 [Example 1.7, N-[(4-methoxytetrahydro-2H-pyran-4-yl)carbonyl]-O-{2-[6-(methylamino)pyridin-2-yl]ethyl}-L-tyrosine] | 0.004 µM
6 | CCCCCC(=O)N[C@@H](Cc1ccc(OCCc2cccc(NC)n2)cc1)C(=O)O [Example 1.10, N-hexanoyl-O-{2-[6-(methylamino)pyridin-2-yl]ethyl}-L-tyrosine] | 0.179 µM
7 | CCCCC(CC)C(=O)N[C@@H](Cc1ccc(OCCc2cccc(NC)n2)cc1)C(=O)O (stereo partly drawn) [Example 1.12, N-(2-ethylhexanoyl)-O-{2-[6-(methylamino)pyridin-2-yl]ethyl}-L-tyrosine] | 0.008 µM
8 | CNc1cccc(CCOc2ccc(C[C@H](NC(=O)C(C)(C)C)C(=O)O)cc2)n1 [Example 1.13, N-(2,2-dimethylpropanoyl)-O-{2-[6-(methylamino)pyridin-2-yl]ethyl}-L-tyrosine] | 0.034 µM
9 | CNc1cccc(CCOc2ccc(C[C@H](NC(=O)[C@@H](C)OC)C(=O)O)cc2)n1 [Example 1.19, N-[(2R)-2-methoxypropanoyl]-O-{2-[6-(methylamino)pyridin-2-yl]ethyl}-L-tyrosine] | 0.029 µM
10 | CNc1cccc(CCOc2ccc(C[C@H](NC(=O)C3(CO)CCOCC3)C(=O)O)cc2)n1 [Example 1.20, N-{[4-(hydroxymethyl)tetrahydro-2H-pyran-4-yl]carbonyl}-O-{2-[6-(methylamino)pyridin-2-yl]ethyl}-L-tyrosine] | 0.032 µM
11 | CNc1cccc(CCOc2ccc(C[C@H](NC(=O)CCc3ccccc3)C(=O)O)cc2)n1 [Example 1.21, O-{2-[6-(methylamino)pyridin-2-yl]ethyl}-N-(3-phenylpropanoyl)-L-tyrosine] | 0.045 µM
12 | CNc1cccc(CCOc2ccc(C[C@H](NC(=O)Cc3ccccc3)C(=O)O)cc2)n1 [Example 1.22, O-{2-[6-(methylamino)pyridin-2-yl]ethyl}-N-(phenylacetyl)-L-tyrosine] | 0.215 µM
13 | CNc1cccc(CCOc2ccc(C[C@H](NC(=O)C(O)c3ccccc3)C(=O)O)cc2)n1 (stereo partly drawn) [Example 1.23, N-[hydroxy(phenyl)acetyl]-O-{2-[6-(methylamino)pyridin-2-yl]ethyl}-L-tyrosine] | 0.837 µM
14 | CNc1cccc(CCOc2ccc(C[C@H](NC(=O)C(c3ccccc3)c3ccccc3)C(=O)O)cc2)n1 [Example 1.24, N-(diphenylacetyl)-O-{2-[6-(methylamino)pyridin-2-yl]ethyl}-L-tyrosine] | 0.045 µM
15 | CNc1cccc(CCOc2ccc(C[C@H](NC(=O)Cc3ccccn3)C(=O)O)cc2)n1 [Example 1.25, O-{2-[6-(methylamino)pyridin-2-yl]ethyl}-N-(pyridin-2-ylacetyl)-L-tyrosine] | 0.235 µM
16 | CNc1cccc(CCOc2ccc(C[C@H](NC(=O)Cc3cccnc3)C(=O)O)cc2)n1 [Example 1.26, O-{2-[6-(methylamino)pyridin-2-yl]ethyl}-N-(pyridin-3-ylacetyl)-L-tyrosine] | 0.525 µM
17 | CNc1cccc(CCOc2ccc(C[C@H](NC(=O)Cc3ccncc3)C(=O)O)cc2)n1 [Example 1.27, O-{2-[6-(methylamino)pyridin-2-yl]ethyl}-N-(pyridin-4-ylacetyl)-L-tyrosine] | 0.287 µM
18 | CC1(C(=O)N[C@@H](Cc2ccc(OCCc3ccc4c(n3)NCCC4)cc2)C(=O)O)CCCCC1 [Example 2.1, N-[(1-methylcyclohexyl)carbonyl]-O-[2-(5,6,7,8-tetrahydro-1,8-naphthyridin-2-yl)ethyl]-L-tyrosine] | 0.001 µM
19 | CC1CCCCC1C(=O)N[C@@H](Cc1ccc(OCCc2ccc3c(n2)NCCC3)cc1)C(=O)O (stereo partly drawn) [Example 2.2, N-[(2-methylcyclohexyl)carbonyl]-O-[2-(5,6,7,8-tetrahydro-1,8-naphthyridin-2-yl)ethyl]-L-tyrosine] | < 0.001 µM

Results, then the molecule that gave them:

Row | IC50 | Structure (SMILES)
20 | 0.007 µM | CNc1cccc(CCOc2ccc(C[C@H](NC(=O)C3CCCCC3C)C(=O)O)cc2)n1 (stereo partly drawn) [Example 1.2, O-{2-[6-(methylamino)pyridin-2-yl]ethyl}-N-[(2-methylcyclohexyl)carbonyl]-L-tyrosine]
21 | 0.958 µM | CNc1cccc(CCOc2ccc(C[C@H](NC(=O)C3(O)CC3)C(=O)O)cc2)n1 [Example 1.6, N-[(1-hydroxycyclopropyl)carbonyl]-O-{2-[6-(methylamino)pyridin-2-yl]ethyl}-L-tyrosine]
22 | 0.363 µM | CC#CC(=O)N[C@@H](Cc1ccc(OCCc2cccc(NC)n2)cc1)C(=O)O [Example 1.8, N-but-2-ynoyl-O-{2-[6-(methylamino)pyridin-2-yl]ethyl}-L-tyrosine]
23 | 0.116 µM | CCC(=O)N[C@@H](Cc1ccc(OCCc2cccc(NC)n2)cc1)C(=O)O [Example 1.9, O-{2-[6-(methylamino)pyridin-2-yl]ethyl}-N-propionyl-L-tyrosine]
24 | 0.073 µM | CNc1cccc(CCOc2ccc(C[C@H](NC(=O)C(C)C)C(=O)O)cc2)n1 [Example 1.11, N-isobutyryl-O-{2-[6-(methylamino)pyridin-2-yl]ethyl}-L-tyrosine]
25 | 0.007 µM | CNc1cccc(CCOc2ccc(C[C@H](NC(=O)C3CCCCCC3)C(=O)O)cc2)n1 [Example 1.14, N-(cycloheptylcarbonyl)-O-{2-[6-(methylamino)pyridin-2-yl]ethyl}-L-tyrosine]
26 | 0.032 µM | CNc1cccc(CCOc2ccc(C[C@H](NC(=O)C3CCCCC3)C(=O)O)cc2)n1 [Example 1.15, N-(cyclohexylcarbonyl)-O-{2-[6-(methylamino)pyridin-2-yl]ethyl}-L-tyrosine]
27 | 0.009 µM | CNc1cccc(CCOc2ccc(C[C@H](NC(=O)C3CCCC3)C(=O)O)cc2)n1 [Example 1.16, N-(cyclopentylcarbonyl)-O-{2-[6-(methylamino)pyridin-2-yl]ethyl}-L-tyrosine]
28 | 0.049 µM | CNc1cccc(CCOc2ccc(C[C@H](NC(=O)C3CCC3)C(=O)O)cc2)n1 [Example 1.17, N-(cyclobutylcarbonyl)-O-{2-[6-(methylamino)pyridin-2-yl]ethyl}-L-tyrosine]
29 | 0.608 µM | CNc1cccc(CCOc2ccc(C[C@H](NC(=O)C3CC3)C(=O)O)cc2)n1 [Example 1.18, N-(cyclopropylcarbonyl)-O-{2-[6-(methylamino)pyridin-2-yl]ethyl}-L-tyrosine]
